The results in this text go back to ChEMBL document CHEMBL4414608, “Secophragmalin-Type Limonoids from Trichilia connaroides: Isolation, Semisynthesis, and Their Cytotoxic Activities” (J Nat Prod, 2019).

SMILES strings stand for the structures.

One assay concerns SK-OV-3. Kind of assay: Cytotoxicity against human SKOV3 cells assessed as cell growth inhibition measured after 24 hrs by MTT assay. Format: functional, cell-based. The settings on record: SK-OV-3, 24 h.
Assay [1] deals with DU-145. Kind of assay: Cytotoxicity against human DU145 cells assessed as cell growth inhibition measured after 24 hrs by MTT assay. Format: functional, cell-based. The settings on record: DU-145, 24 h.
The next assay relates to COLO 205. Kind of assay: Cytotoxicity against human COLO205 cells assessed as cell growth inhibition measured after 24 hrs by MTT assay. In kind it is functional, cell-based. The note with it: COLO 205, 24 h.
For assay [2], the system named is DU-145. Kind of assay: Induction of apoptosis in human DU145 cells assessed as live cells at 5.2 uM measured after 24 hrs by Annexin-V/FITC and propidium iodide staining based flow cytometry (reference value: 95.62 %). In kind it is functional. In general terms: In flow cytometry, cells or beads pass a laser one at a time.
In assay [3] the test system is DU-145. In words: Cell cycle arrest in human DU145 cells assessed as accumulation at G0/G1 phase at 5.2 uM measured after 24 hrs by RNase A/propidium iodide staining based flow cytometry analysis (reference value: 51.75 %). Format: functional.
For a further assay, the system named is HeLa. Kind of assay: Cytotoxicity against human HeLa cells assessed as cell growth inhibition measured after 24 hrs by MTT assay. In kind it is functional, cell-based. On the technique in general: Tetrazolium assays rely on reduction of a dye to a coloured formazan, in cell work by metabolically active cells.
The test system of assay [4] is DU-145. Kind of assay: Induction of apoptosis in human DU145 cells assessed as late apoptotic cells at 8 uM measured after 24 hrs by Annexin-V/FITC and propidium iodide staining based flow cytometry (reference value: 1.49 %). In kind it is functional.
For assay [5], the system named is DU-145. Kind of assay: Induction of apoptosis in human DU145 cells assessed as live cells at 8 uM measured after 24 hrs by Annexin-V/FITC and propidium iodide staining based flow cytometry (reference value: 95.62 %). Format: functional.
Assay [6] deals with DU-145. In words: Induction of apoptosis in human DU145 cells assessed as early apoptotic cells at 5.2 uM measured after 24 hrs by Annexin-V/FITC and propidium iodide staining based flow cytometry (reference value: 0.25 %). Format: functional.
Assay [7] has as its system DU-145. In words: Induction of apoptosis in human DU145 cells assessed as necrotic cells at 5.2 uM measured after 24 hrs by Annexin-V/FITC and propidium iodide staining based flow cytometry (reference value: 2.64 %). In kind it is functional.
Assay [8] concerns DU-145. In words: Induction of apoptosis in human DU145 cells assessed as late apoptotic cells at 5.2 uM measured after 24 hrs by Annexin-V/FITC and propidium iodide staining based flow cytometry (reference value: 1.49 %). Format: functional.
The subject of another assay is A549. In words: Cytotoxicity against human A549 cells assessed as cell growth inhibition measured after 24 hrs by MTT assay. The settings on record: A549, 24 h. In kind it is functional, cell-based.
Assay [9] deals with DU-145. Kind of assay: Induction of apoptosis in human DU145 cells assessed as early apoptotic cells at 8 uM measured after 24 hrs by Annexin-V/FITC and propidium iodide staining based flow cytometry (reference value: 0.25 %). In kind it is functional.
The test system of assay [10] is DU-145. In words: Induction of apoptosis in human DU145 cells assessed as necrotic cells at 8 uM measured after 24 hrs by Annexin-V/FITC and propidium iodide staining based flow cytometry (reference value: 2.64 %). Format: functional.

With `C/C=C(\C)C(=O)O[C@@H]1[C@]2(OC(=O)CCCC)C=C3C4=CC(=O)O[C@@H](c5ccoc5)[C@]4(C)CC[C@@H]3[C@@]3(C)[C@H](C[C@]1(C)[C@H]3[C@@H](O)C(=O)OC)O2`, the IC50 in the assay on SK-OV-3 is 13.7 µM; with DU-145 [1] it was 5.2 µM; in the assay on COLO 205 it was 4 µM; in the assay on HeLa it was > 100 µM; in the assay with A549 it was 9.4 µM. The Activity with DU-145 [2] came out at 83.45%; in the assay on DU-145 [3] it was 42.93%; with DU-145 [4], 8.11%; with DU-145 [5] it was 85.39%; in the assay on DU-145 [6], 1.74%; in the assay with DU-145 [7], 4.46%. The Activity with DU-145 [8] is given as 10.35%; in the assay with DU-145 [9] it was 1.39%; in the assay on DU-145 [10] it was 5.11%.

The term IC50 denotes the point on the concentration scale where inhibition reaches its midpoint.
